This note sets out measurements from patent US8399452B2, “Dibenzo[b,f][1,4]oxazepin-11-yl-N-hydroxybenzamides as HDAC inhibitors” (Methylgene Inc., priority 2006, dated 2013).

Molecules are shown by their SMILES.

The first assay addresses histone deacetylase (HDAC Enzyme). Briefly: Inhibition of Histone Deacetylase Enzymatic Activity (Boc-Lys(Ac)-AMC, Fluor-de-Lys developer). The format is biochemical. The following applies: Table 9; read-out: HDAC Inhibition (IC50 μM) HDAC Enzyme. On the procedure:
The following protocol is used to assay the compounds of the invention.
The mixture is pre-incubated for 5 minutes at room temperature. The reaction is started by bringing the temperature to 37° C. and adding 16 μl substrate. Total reaction volume is 50 μl.
In the Tables 8, 9 and 10, A≦[…]<B≦0.1 μM; 0.1 μM<C≦1 μM; and 1 μM<D≦10 μM.
By IC50 is commonly meant the midpoint of a concentration-inhibition curve. For the molecule `O=C(NO)c1cnc(N2C[C@@H]3C[C@H]2CN3c2noc3ccccc23)nc1` [2-((1S,4S)-5-(benzo[d]isoxazol-3-yl)-2,5-diazabicyclo[2.2.1]heptan-2-yl)-N-hydroxypyrimidine-5-carboxamide], the IC50 was less than 0.05 µM.

For the molecule `O=C(NO)c1cnc(N2C[C@@H]3C[C@H]2CN3C(c2ccccc2)c2ccccc2)nc1` [2-((1S,4S)-5-benzhydryl-2,5-diazabicyclo[2.2.1]heptan-2-yl)-N-hydroxypyrimidine-5-carboxamide], the IC50 is less than 0.05 µM.

For the molecule `O=C(NO)c1cnc(N2C[C@@H]3C[C@H]2CN3C(=O)c2ccccc2)nc1` [2-((1S,4S)-5-benzoyl-2,5-diazabicyclo[2.2.1]heptan-2-yl)-N-hydroxypyrimidine-5-carboxamide], the IC50 was less than 0.05 µM.

Take `O=C(NO)c1cnc(N2C[C@@H]3C[C@H]2CN3Cc2ccccc2)nc1` [2-((1S,4S)-5-benzyl-2,5-diazabicyclo[2.2.1]heptan-2-yl)-N-hydroxypyrimidine-5-carboxamide]: the IC50 fell in the range of 0.1 to 1 µM.

Regarding `O=C(NO)c1ccc(N2C[C@@H]3C[C@H]2CN3c2cccc(C(F)(F)F)c2)cc1F` [2-fluoro-N-hydroxy-4-((1S,4S)-5-(3-(trifluoromethyl)phenyl)-2,5-diazabicyclo[2.2.1]heptan-2-yl)benzamide], the IC50 was 0.1 to 1 µM.

`N#Cc1cccc(N2C[C@@H]3C[C@H]2CN3c2ccc(C(=O)NO)cc2)c1` [4-((1S,4S)-5-(3-cyanophenyl)-2,5-diazabicyclo[2.2.1]heptan-2-yl)-N-hydroxybenzamide]: the IC50 was in the range of 0.1 to 1 µM.

Consider `O=C(NO)c1cnc(N2C[C@@H]3C[C@H]2CN3C(=O)OCc2ccccc2)nc1` [(1S,4S)-benzyl 5-(5-(hydroxycarbamoyl)pyrimidin-2-yl)-2,5-diazabicyclo[2.2.1]heptane-2-carboxylate], for which the IC50 is less than 0.05 µM.

`O=C(NO)c1cnc(N2C[C@@H]3C[C@H]2CN3C(=O)OC2CCCC2)nc1` [(1S,4S)-cyclopentyl 5-(5-(hydroxycarbamoyl)pyrimidin-2-yl)-2,5-diazabicyclo[2.2.1]heptane-2-carboxylate]: the IC50 is less than 0.05 µM.

With `O=C(NO)c1cnc(N2C[C@@H]3C[C@H]2CN3C(=O)OCC2CC2)nc1` [(1S,4S)-cyclopropylmethyl 5-(5-(hydroxycarbamoyl)pyrimidin-2-yl)-2,5-diazabicyclo[2.2.1]heptane-2-carboxylate], the IC50 was less than 0.05 µM.

For `CC(C)COC(=O)N1C[C@@H]2C[C@H]1CN2c1ncc(C(=O)NO)cn1` [(1S,4S)-isobutyl 5-(5-(hydroxycarbamoyl)pyrimidin-2-yl)-2,5-diazabicyclo[2.2.1]heptane-2-carboxylate], the IC50 is less than 0.05 µM.

For `CC(C)OC(=O)N1C[C@@H]2C[C@H]1CN2c1ncc(C(=O)NO)cn1` [(1S,4S)-isopropyl 5-(5-(hydroxycarbamoyl)pyrimidin-2-yl)-2,5-diazabicyclo[2.2.1]heptane-2-carboxylate], the IC50 is less than 0.05 µM.

Still in this assay, the particulars now being: Table 10; read-out: HDAC Inhibition (IC50 μM) HDAC Enzyme.
Turning to `O=C(NO)c1cnc(NC(c2ccccc2)c2ccccc2)nc1` [2-(benzhydrylamino)-N-hydroxypyrimidine-5-carboxamide], the IC50 is less than 0.05 µM.

`O=C(NO)c1cnc(OC(c2ccc(F)cc2)c2ccc(F)cc2)nc1` [2-(bis(4-fluorophenyl)methoxy)-N-hydroxypyrimidine-5-carboxamide]: the IC50 was 0.1 to 1 µM.

Take `O=C(NO)c1cnc(NC(c2ccc(F)cc2)c2ccc(F)cc2)nc1` [2-(bis(4-fluorophenyl)methylamino)-N-hydroxypyrimidine-5-carboxamide]: the IC50 is less than 0.05 µM.

Consider `O=C(NO)c1cnc(ON=C(c2ccccc2)c2ccccc2)nc1` [2-(diphenylmethyleneaminooxy)-N-hydroxypyrimidine-5-carboxamide], for which the IC50 is 1 to 10 µM.

Turning to `O=C(NO)c1cccc(CN2c3ccccc3Sc3ccccc32)c1` [3-((10H-phenothiazin-10-yl)methyl)-N-hydroxybenzamide], the IC50 was 0.1 to 1 µM.

On to `O=C(NO)c1cccc(CN2c3ccccc3Oc3ccccc32)c1` [3-((10H-phenoxazin-10-yl)methyl)-N-hydroxybenzamide], for which the IC50 was in the range of 1 to 10 µM.

Turning to `O=C(NO)c1cccc(CN(c2ccccc2)c2ccccc2)c1` [3-((diphenylamino)methyl)-N-hydroxybenzamide], the IC50 was 1 to 10 µM.

As to `O=C(CCCN1C(=O)c2cccnc2N(C2CC2)c2ccccc21)NO` [4-(11-cyclopropyl-5-oxo-5H-benzo[b]pyrido[2,3-e][1,4]diazepin-6(11H)-yl)-N-hydroxybutanamide], the IC50 was in the range of 1 to 10 µM.

`O=C(NO)c1ccc(Cn2c3c(c4ccccc42)CCCCCC3)cc1` [4-((6,7,8,9,10,11-hexahydro-5H-cycloocta[b]indol-5-yl)methyl)-N-hydroxybenzamide]: the IC50 is 0.1 to 1 µM.

In the case of `O=C(NO)c1ccc(CNC2c3ccccc3COc3ccccc32)cc1` (stereo not drawn) [4-((6,11-dihydrodibenzo[b,e]oxepin-11-ylamino)methyl)-N-hydroxybenzamide], the concentration for half-maximal inhibition (IC50) was 0.1 to 1 µM.

On to `O=C(NO)c1ccc(CN2c3ccccc3CCc3ccccc32)cc1` [4-((10,11-dihydro-5H-dibenzo[b,f]azepin-5-yl)methyl)-N-hydroxybenzamide], for which the IC50 was less than 0.05 µM.

For `O=C(NO)c1ccc(CN2C(=O)c3cccnc3N(C3CC3)c3ccccc32)cc1` [4-((11-cyclopropyl-5-oxo-5H-benzo[b]pyrido[2,3-e][1,4]diazepin-6(11H)-yl)methyl)-N-hydroxybenzamide], the IC50 fell in the range of 0.1 to 1 µM.

With `O=C(NO)c1ccc(CNC(c2ccccc2)c2ccccc2)cc1` [4-((benzhydrylamino)methyl)-N-hydroxybenzamide], the IC50 is less than 0.05 µM.

For the molecule `O=C(NO)c1ccc(CN(c2ccccc2)c2ccccc2)cc1` [4-((diphenylamino)methyl)-N-hydroxybenzamide], the IC50 lay within 0.1 to 1 µM.

For the molecule `O=C(NO)c1ccc(CN2Cc3ccccc3Oc3ccccc32)cc1` [4-(dibenzo[b,f][1,4]oxazepin-10(11H)-ylmethyl)-N-hydroxybenzamide], the IC50 was less than 0.05 µM.

Regarding `O=C(CCCCCN1c2ccccc2CCc2ccccc21)NO` [6-(10,11-dihydro-5H-dibenzo[b,f]azepin-5-yl)-N-hydroxyhexanamide], the IC50 is less than 0.05 µM.

Regarding `O=C(CCCCCN1C(=O)c2cccnc2N(C2CC2)c2ccccc21)NO` [6-(11-cyclopropyl-5-oxo-5H-benzo[b]pyrido[2,3-e][1,4]diazepin-6(11H)-yl)-N-hydroxyhexanamide], the IC50 was 0.1 to 1 µM.

`O=C(CCCCCCN1C(=O)c2cccnc2N(C2CC2)c2ccccc21)NO` [7-(11-cyclopropyl-5-oxo-5H-benzo[b]pyrido[2,3-e][1,4]diazepin-6(11H)-yl)-N-hydroxyheptanamide]: the IC50 lay within 0.05 to 0.1 µM.

Regarding `O=C(CCCCCCN1Cc2ccccc2Oc2ccccc21)NO` [7-(dibenzo[b,f][1,4]oxazepin-10(11H)-yl)-N-hydroxyheptanamide], the IC50 was in the range of 0.1 to 1 µM.

`O=C(CCCCCCCN1C(=O)c2cccnc2N(C2CC2)c2ccccc21)NO` [8-(11-cyclopropyl-5-oxo-5H-benzo[b]pyrido[2,3-e][1,4]diazepin-6(11H)-yl)-N-hydroxyoctanamide]: the IC50 lay in the range of 0.1 to 1 µM.

Take `O=C(CCCCCCC(=O)N1Cc2ccccc2Oc2ccccc21)NO` [8-(dibenzo[b,f][1,4]oxazepin-10(11H)-yl)-N-hydroxy-8-oxooctanamide]: the IC50 lay in the range of 0.1 to 1 µM.

Staying with this assay, now noted: read-out: HDAC Inhibtion (IC50 μM) HDAC Enzyme.
Take `O=C(NO)c1ccc(C2Nc3ccccc3Oc3ccccc32)cc1` (stereo not drawn) [4-(10,11-dihydrodibenzo[b,f][1,4]oxazepin-11-yl)-N-hydroxybenzamide]: the IC50 was less than 0.05 µM.
